This is an account of results in US12479820B2, “Pyridin-3-yl derivatives” (Idorsia Pharmaceuticals Ltd, priority 2019, dated 2025).

As usually defined, the IC50 is the concentration at which inhibition is half-maximal.

The target of the test is T1, human LPA1 receptor (Homo sapiens, UniProt Q92633).
T1 construct: TEV protease site; Gal4-VP16 transcription factor; host or cells: Tango EDG2-bla U2OS cells
T1 sequence (Q92633 whole entry, the tested form may be a part): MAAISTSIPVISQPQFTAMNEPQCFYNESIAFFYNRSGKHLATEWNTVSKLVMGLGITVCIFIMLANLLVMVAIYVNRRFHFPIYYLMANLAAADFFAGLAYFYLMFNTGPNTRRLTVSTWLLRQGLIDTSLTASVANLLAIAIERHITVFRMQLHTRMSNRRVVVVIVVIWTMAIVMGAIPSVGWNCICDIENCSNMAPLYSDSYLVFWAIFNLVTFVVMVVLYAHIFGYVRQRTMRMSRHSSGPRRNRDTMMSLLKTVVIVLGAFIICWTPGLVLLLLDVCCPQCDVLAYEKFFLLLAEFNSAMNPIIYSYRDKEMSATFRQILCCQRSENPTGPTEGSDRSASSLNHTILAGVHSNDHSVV
As to the kind of experiment: Beta-arrestin recruitment assay to determine IC50 values for human LPAR1. The format is cell-based. The conditions noted are these: Tango EDG2-bla U2OS cells, antagonist assay, LPA 18:1 500 nM final. The source says: Beta-Arrestin Recruitment Assay to Determine IC50 Values for Human LPAR1
The Tango™ EDG2-bla U2OS cells are obtained from Invitrogen. These cells contain the human LPA1 receptor cDNA linked to a TEV protease site and a Gal4-VP16 transcription factor integrated into the Tango™ GPCR-bla U2OS parental cell line. This parental cell line stably expresses a beta-arrestin/TEV protease fusion protein and the beta-lactamase (bla) reporter gene under the control of a UAS response element. Upon LPA (agonist) binding, LPA1 receptor gets activated, leading to arrestin-protease recruitment and proteolytic release of the transcription factor: The transcription factor then regulates transcription of a beta-lactamase reporter construct, which is measured upon addition of the live-cell substrate.
10′000 Tango™ EDG2-bla U2OS cells are seeded in a 384-well black with clear bottom plate in 30 μl Freestyle 293 Expression Medium (Invitrogen) and incubated for 20 h at 37° C., 5% CO2. For antagonist assays, 5 μl of test compound (dilution series in DMSO/Freestyle 293 Expression medium/0.1% fatty acid free BSA (Sigma)) or buffer control are added per well and incubated for 30 min at 37° C., 5% CO2. 5 μl of LPA 18:1 (500 nM final) (solution in Freestyle 293 Expression medium/0.1% fatty acid free BSA (Sigma)) are added per well and the plate incubated for 16 h at 37° C., 5% CO2. Cells are then loaded with LiveBLAzer-FRET™ B/G Substrate (Invitrogen) for 2 h in the dark and the fluorescence emission at 460 nm and 530 nm is measured using the SynergyMx reader (BioTek). Following the background subtraction from both channels, the 460/530 nm emission ratio for each well is calculated, then plotted and fitted to a 4-parameter logistic function to obtain IC50 values. IC50 is the concentration of antagonist inhibiting 50% of the maximal response.
As to `COc1cc(Br)ncc1NC(=O)C1(c2ccccc2C(C)C)CN(S(N)(=O)=O)C1` [Example 21-9, N-(6-bromo-4-methoxypyridin-3-yl)-3-(2-isopropylphenyl)-1-sulfamoylazetidine-3-carboxamide], the 50% inhibitory concentration (IC50) was 2 nM.
In the case of `COCCOc1cc(Cl)ncc1NC(=O)C1(c2ccccc2C(C)C)CN(S(N)(=O)=O)C1` [Example 21-6, N-(6-chloro-4-(2-methoxyethoxy)pyridin-3-yl)-3-(2-isopropylphenyl)-1-sulfamoylazetidine-3-carboxamide], the IC50 was 44 nM.
Regarding `COc1cc(Cl)ncc1NC(=O)C1(c2ccccc2C(C)C)CN(c2ccncc2F)C1` [Example 24-2, N-(6-chloro-4-methoxypyridin-3-yl)-1-(3-fluoropyridin-4-yl)-3-(2-isopropylphenyl)azetidine-3-carboxamide], the 50% inhibitory concentration (IC50) amounted to 2 nM.
Consider `COc1cc(Cl)ncc1NC(=O)C1(c2ccccc2C(C)C)CN(c2nnn[nH]2)C1` [Example 25, N-(6-chloro-4-methoxypyridin-3-yl)-3-(2-isopropylphenyl)-1-(1H-tetrazol-5-yl)azetidine-3-carboxamide], for which the IC50 turned out to be 270 nM.
Turning to `CCOc1cc(Cl)ncc1NC(=O)C1(c2ccccc2C(C)C)CN(S(N)(=O)=O)C1` [Example 21-3, N-(6-chloro-4-ethoxypyridin-3-yl)-3-(2-isopropylphenyl)-1-sulfamoylazetidine-3-carboxamide], the IC50 worked out at 2 nM.
As for `COCCS(=O)(=O)N1CC(C(=O)Nc2cnc(Cl)cc2OC)(c2ccccc2C(C)C)C1` [Example 20-2, N-(6-chloro-4-methoxypyridin-3-yl)-3-(2-isopropylphenyl)-1-((2-methoxyethyl)sulfonyl)azetidine-3-carboxamide], the 50% inhibitory concentration (IC50) is 608 nM.
Turning to `COc1cc(Cl)ncc1NC(=O)C1(c2ccccc2C(C)C)CN(C(=O)Cn2ncnn2)C1` [Example 19-10, 1-(2-(2H-tetrazol-2-yl)acetyl)-N-(6-chloro-4-methoxypyridin-3-yl)-3-(2-isopropylphenyl)azetidine-3-carboxamide], the IC50 is 17 nM.
Regarding `COc1cc(Cl)ncc1NC(=O)C1(c2ccccc2C2CCCC2)CNC1` [Example 17, N-(6-chloro-4-methoxypyridin-3-yl)-3-(2-cyclopentylphenyl)azetidine-3-carboxamide], the IC50 came out at 3 nM.
Regarding `COc1cc(Cl)ncc1NC(=O)C1(c2ccccc2C(C)C)CN(C(=O)Cn2ccnn2)C1` [Example 19-11, 1-(2-(1H-1,2,3-triazol-1-yl)acetyl)-N-(6-chloro-4-methoxypyridin-3-yl)-3-(2-isopropylphenyl)azetidine-3-carboxamide], the IC50 amounted to 107 nM.
With `COc1cc(Cl)ncc1NC(=O)C1(c2ccccc2C(C)C)CN(C(=O)Cn2cc(CO)nn2)C1` [Example 19-9, N-(6-chloro-4-methoxypyridin-3-yl)-1-(2-(4-(hydroxymethyl)-1H-1,2,3-triazol-1-yl)acetyl)-3-(2-isopropylphenyl)azetidine-3-carboxamide], the IC50 was 52 nM.
Regarding `COc1cc(Cl)ncc1NC(=O)C1(c2ccccc2C(C)C)CCN(CCC(C)(C)C(=O)O)CC1` [Example 18-22, 4-(4-((6-chloro-4-methoxypyridin-3-yl)carbamoyl)-4-(2-isopropylphenyl)piperidin-1-yl)-2,2-dimethylbutanoic acid], the 50% inhibitory concentration (IC50) worked out at 79 nM.
Turning to `COc1cc(Cl)ncc1NC(=O)C1(c2ccccc2C(C)C)CN(C(=O)N2CCOCC2)C1` [Example 22-16, N-(6-chloro-4-methoxypyridin-3-yl)-3-(2-isopropylphenyl)-1-(morpholine-4-carbonyl)azetidine-3-carboxamide], the IC50 was found to be 201 nM.
For the compound `COC(=O)c1ccc(N2CC(C(=O)Nc3cnc(Cl)cc3OC)(c3ccccc3C(C)C)C2)nn1` [Example 24-24, methyl 6-(3-((6-chloro-4-methoxypyridin-3-yl)carbamoyl)-3-(2-isopropylphenyl)azetidin-1-yl)pyridazine-3-carboxylate], the 50% inhibitory concentration (IC50) was 24 nM.
